Experimental data reported in article PMC10518255, “A first-in-class pan-lysyl oxidase inhibitor impairs stromal remodeling and enhances gemcitabine response and survival in pancreatic cancer” (Nature Cancer, 2023).
Values joined by “and” are separate entries in the source; they are usually repeats but may differ in a detail not shown here. Equal entries are not always repeated.

Test system: APMA human PDX tumors
Assay: APMA human PDX model, bulk modulus by unconfined compression (Extended Data Fig. 5j)
Format: in vivo, mouse
Design: Bulk modulus (stiffness) by unconfined compression testing: unit: kPa (bulk elastic modulus, slope of stress–strain curve)
Details: for Bulk modulus (stiffness) by unconfined compression testing: Extended Data 5J, endpoint human PDX tumours (second model), individual animals
Protocol: Unconfined compression of in vivo tissue samples was carried out on 2–3-mm cross-sectional slices using a TA Instruments Dynamic Hybrid Rheometer (DHR-3, TA Instruments). Tissue samples were placed between upper and lower parallel plate geometries. A constant linear compressive rate of 5 µm s^−1 was applied to the samples and axial force (N) and gap (mm) were collected every 0.01 s. Data were processed and a stress–strain curve for each replicate was obtained. Bulk elastic modulus (kPa) was obtained as the gradient of the linear region of the stress–strain curve corrected for cross-sectional area of sample. Data points represent individual biological replicates.
Subcutaneous PDX studies were performed by implanting early passage PDX pieces (~4 mm^3) or TKCC10 CCs (1.5 × 10^6 cells per mouse in 100 μl PBS/Matrigel 1:1) into female (PDX) or male (TKCC10) 8-week-old immunocompromised nude Balb/c-Fox1nuAusb mice subcutaneously on the left flank. For the duration of the study, mice were kept in conventional caging with environmental enrichment, access to standard chow, water ad libitum and 12-h light–dark cycle at ambient temperature and humidity. […] Tumor size was monitored every second day by calipers. Tumor volume was calculated using the formula (length × width^2)/2. […]
Extended Data Fig. 5 PXS-5505 in combination with gemcitabine in vivo. a. […] Signal is defined as the enzyme activity in the aorta, while noise is measured in the presence of a high concentration (300 µM) BAPN to abolish any lysyl oxidase family activity. […] FITC-dextran (molecular weight: 10 kDa) signal quantification from KPC tumor end point from each treatment group (vehicle n = 3 biologically independent animals, PXS-5505 n = 5 biologically independent animals, Gem n = 5 biologically independent animals, PXS-5505 + Gem n = 5 biologically independent animals). […] P-values determined by Welchs t-test. […] Quantification of red birefringent (mature) collagen fibers from human PDXs at end point after 3 cycles of treatment, treated as indicated. […] P values determined by Welchs t-test. g. […]

Row | Compound | tumor stiffness (APMA human PDX, three rounds of treatment) | Bulk modulus (stiffness) by unconfined compression testing
1 | Nc1ccn([C@@H]2O[C@H](CO)[C@@H](O)C2(F)F)c(=O)n1 [Gem, gemcitabine] | increase in tumor stiffness | 269.794 and 256.26 and 76.734 and 111.802 and 206.587 and 133.731 and 307.593 and 168.407 and 179.416 and 246.898
2 | Cl.Cl.NC/C=C(\F)CS(=O)(=O)c1cccc2cccnc12.O [PXS-5505, (Z)-3-fluoro-4-(quinolin-8-ylsulfonyl)but-2-en-1-amine dihydrochloride monohydrate] | – | 1.617 and 12.779 and 4.886 and 20.468 and 19.194 and 15.624 and 4.142 and 7.216 and 19.443
